According to publication PMC12073402, “A Selective MAP3K1 Inhibitor Facilitates Discovery of NPM1 as a Member of the Network” (Molecules, 2025):

How the values were obtained:
Assay in all cases: KiNativ kinome profiling in PANC-1 lysate
Type in all cases: binding
HRI = molecular target: T1, HRI (Homo sapiens, UniProt Q9BQI3); details: ATP Loop
T1 construct: we opted to conduct a kinome screen (KiNativ) in PANC-1 cell lysates; endogenous in cells; host or cells: PANC-1 cell lysate
Summary of the method: (§1)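 PANC-1 lysates were incubated with 5 μM inhibitor or DMSO, then labeled with a desthiobiotin-ATP acyl-phosphate probe that biotinylates conserved kinase lysines. Tryptic peptides were streptavidin-enriched and quantified by LC-MS/MS, reported as % change in MS signal from duplicate treated and duplicate control samples.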

CLK3 = molecular target: T2, CLK3 (Homo sapiens, UniProt P49761)
T2 construct: endogenous in cells; host or cells: PANC-1 cell lysate
Summary of the method: as §1

MAP4K5 = molecular target: T3, MAP4K5 (Homo sapiens, UniProt Q9Y4K4)
T3 construct: endogenous in cells; host or cells: PANC-1 cell lysate
Summary of the method: as §1

MAP2K6 = molecular target: T4, MAP2K6 (Homo sapiens, UniProt P52564); details: for % Inhibition: 5 µM
T4 construct: endogenous in cells; host or cells: PANC-1 cell lysate
T4 sequence (P52564 1-334): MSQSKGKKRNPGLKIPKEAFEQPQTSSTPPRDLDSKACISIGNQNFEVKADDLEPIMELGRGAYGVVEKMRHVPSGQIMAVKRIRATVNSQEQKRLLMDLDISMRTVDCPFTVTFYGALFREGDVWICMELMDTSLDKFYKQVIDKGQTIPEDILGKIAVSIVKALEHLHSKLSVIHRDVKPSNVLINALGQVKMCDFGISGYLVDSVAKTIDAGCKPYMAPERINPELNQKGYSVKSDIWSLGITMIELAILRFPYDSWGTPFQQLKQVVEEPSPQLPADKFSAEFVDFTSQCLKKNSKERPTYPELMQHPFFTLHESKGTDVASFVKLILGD
Summary of the method: as §1

AurA, AurB, AurC = details: 5 µM; ATP Loop; GKFGNVYLAR
Summary of the method: as §1

CLK1 = molecular target: T5, CLK1 (Homo sapiens, UniProt P49759); details: Lys2
T5 construct: endogenous in cells; host or cells: PANC-1 cell lysate
Summary of the method: as §1

FYN, SRC, YES = details: 5 µM; ATP Loop; QGAKFPIKWTAPEAALYGR
Summary of the method: as §1

CCRK = molecular target: T6, CCRK (Homo sapiens, UniProt Q8IZL9); details: Lys2
T6 construct: endogenous in cells; host or cells: PANC-1 cell lysate
Summary of the method: as §1

MAP3K15, MAP3K5, MAP3K6 = molecular target: T7, MAP3K15, MAP3K5, MAP3K6 (Homo sapiens, UniProt Q6ZN16); details: 5 μM; PANC-1 lysate
T7 construct: endogenous in cells; host or cells: PANC-1 cell lysate
Summary of the method: as §1

PAN3 = molecular target: T8, PAN3 (Homo sapiens, UniProt Q58A45); details: ATP
T8 construct: endogenous in cells; host or cells: PANC-1 cell lysate
Summary of the method: as §1

CHK2 = molecular target: T9, CHK2 (Homo sapiens, UniProt O96017)
T9 construct: endogenous in cells; host or cells: PANC-1 cell lysate
Summary of the method: as §1

CDK10 = molecular target: T10, CDK10 (Homo sapiens, UniProt Q15131); details: Lys2
T10 construct: endogenous in cells; host or cells: PANC-1 cell lysate
Summary of the method: as §1

SNRK = molecular target: T11, SNRK (Homo sapiens, UniProt Q9NRH2)
T11 construct: endogenous in cells; host or cells: PANC-1 cell lysate
Summary of the method: as §1

Erk3 = molecular target: T12, Erk3 (Homo sapiens, UniProt Q16659); details: Lys2
T12 construct: endogenous in cells; host or cells: PANC-1 lysate
Summary of the method: as §1

CDK6 = molecular target: T13, CDK6 (Homo sapiens, UniProt Q00534); details: Lys2
T13 construct: endogenous in cells; host or cells: PANC-1 cell lysate
Summary of the method: as §1

SRPK2 = molecular target: T14, SRPK2 (Homo sapiens, UniProt P78362); details: Lys2
T14 construct: endogenous in cells; host or cells: PANC-1 cell lysate
Summary of the method: as §1

ZC1/HGK = molecular target: T15, ZC1/HGK (Homo sapiens, UniProt O95819); details: Lys1
T15 construct: endogenous in cells; host or cells: PANC-1 cell lysate
Summary of the method: as §1

Wnk1, Wnk2 = details: 5 µM; ATP Loop; GSFKTVYK
Summary of the method: as §1

MST4, YSK1 = details: 5 µM; Lys2; DIKAANVLLSEQGDVK
Summary of the method: as §1

MSK2 domain1 = molecular target: T16, MSK2 domain1 (Homo sapiens, UniProt O75676)
T16 construct: endogenous in cells; host or cells: PANC-1
Summary of the method: as §1

PIK3CD = molecular target: T17, PIK3CD (Homo sapiens, UniProt O00329); details: ATP
T17 construct: endogenous in cells; host or cells: PANC-1 cell lysate
Summary of the method: as §1

T3 sequence (Q9Y4K4 whole entry): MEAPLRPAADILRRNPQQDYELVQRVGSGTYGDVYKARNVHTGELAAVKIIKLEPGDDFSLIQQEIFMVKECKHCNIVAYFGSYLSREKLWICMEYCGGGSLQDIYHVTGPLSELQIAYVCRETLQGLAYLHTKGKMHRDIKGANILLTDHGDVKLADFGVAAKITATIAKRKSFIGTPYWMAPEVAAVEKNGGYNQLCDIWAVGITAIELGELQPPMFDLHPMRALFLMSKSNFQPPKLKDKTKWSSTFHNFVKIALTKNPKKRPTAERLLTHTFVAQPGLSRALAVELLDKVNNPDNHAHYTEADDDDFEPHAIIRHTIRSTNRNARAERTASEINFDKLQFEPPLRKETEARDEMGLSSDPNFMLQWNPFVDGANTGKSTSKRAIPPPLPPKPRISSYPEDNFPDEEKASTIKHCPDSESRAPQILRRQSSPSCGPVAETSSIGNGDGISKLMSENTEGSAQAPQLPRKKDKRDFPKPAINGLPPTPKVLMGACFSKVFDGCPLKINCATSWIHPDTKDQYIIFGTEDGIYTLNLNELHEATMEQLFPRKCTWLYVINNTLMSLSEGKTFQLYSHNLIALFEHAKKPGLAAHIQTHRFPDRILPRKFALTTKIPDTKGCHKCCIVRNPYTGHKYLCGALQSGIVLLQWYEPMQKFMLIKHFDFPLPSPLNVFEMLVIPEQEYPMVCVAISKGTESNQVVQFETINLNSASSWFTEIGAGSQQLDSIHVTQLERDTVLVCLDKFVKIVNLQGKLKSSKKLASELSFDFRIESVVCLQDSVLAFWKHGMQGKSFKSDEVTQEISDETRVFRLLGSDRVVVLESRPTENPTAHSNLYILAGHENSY
T2 sequence (P49761 whole entry): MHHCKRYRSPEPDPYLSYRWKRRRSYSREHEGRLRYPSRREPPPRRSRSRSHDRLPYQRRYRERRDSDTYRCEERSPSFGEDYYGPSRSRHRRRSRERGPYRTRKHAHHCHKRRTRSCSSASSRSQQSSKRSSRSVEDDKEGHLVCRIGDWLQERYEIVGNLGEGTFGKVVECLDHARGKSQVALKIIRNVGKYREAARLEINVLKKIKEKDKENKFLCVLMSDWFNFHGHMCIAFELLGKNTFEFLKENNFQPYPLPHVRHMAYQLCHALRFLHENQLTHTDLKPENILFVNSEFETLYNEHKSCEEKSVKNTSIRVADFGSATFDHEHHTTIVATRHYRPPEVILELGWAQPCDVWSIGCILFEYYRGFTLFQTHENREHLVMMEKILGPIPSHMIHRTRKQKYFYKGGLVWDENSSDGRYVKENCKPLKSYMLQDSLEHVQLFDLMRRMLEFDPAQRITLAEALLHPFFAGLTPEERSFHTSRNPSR
T16 sequence (O75676 whole entry, the tested form may be a part): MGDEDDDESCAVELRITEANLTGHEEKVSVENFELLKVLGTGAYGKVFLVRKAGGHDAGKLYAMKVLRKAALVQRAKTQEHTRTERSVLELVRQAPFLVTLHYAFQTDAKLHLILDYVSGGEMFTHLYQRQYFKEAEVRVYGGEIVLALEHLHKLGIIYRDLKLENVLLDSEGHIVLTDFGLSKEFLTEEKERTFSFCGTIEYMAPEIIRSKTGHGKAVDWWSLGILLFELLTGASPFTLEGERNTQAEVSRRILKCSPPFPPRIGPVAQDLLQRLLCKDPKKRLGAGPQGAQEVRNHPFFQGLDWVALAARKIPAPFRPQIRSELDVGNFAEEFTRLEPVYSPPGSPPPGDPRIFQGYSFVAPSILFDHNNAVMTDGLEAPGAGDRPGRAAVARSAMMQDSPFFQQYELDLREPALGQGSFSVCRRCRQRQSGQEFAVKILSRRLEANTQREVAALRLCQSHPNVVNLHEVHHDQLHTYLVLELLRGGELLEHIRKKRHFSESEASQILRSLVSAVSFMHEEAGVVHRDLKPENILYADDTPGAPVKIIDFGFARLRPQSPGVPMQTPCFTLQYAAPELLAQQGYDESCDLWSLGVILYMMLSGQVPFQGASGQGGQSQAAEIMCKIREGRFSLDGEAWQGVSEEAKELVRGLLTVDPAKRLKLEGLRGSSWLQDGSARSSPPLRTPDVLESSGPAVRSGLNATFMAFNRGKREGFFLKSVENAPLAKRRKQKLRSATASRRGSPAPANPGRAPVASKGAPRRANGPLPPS
T8 sequence (Q58A45 whole entry): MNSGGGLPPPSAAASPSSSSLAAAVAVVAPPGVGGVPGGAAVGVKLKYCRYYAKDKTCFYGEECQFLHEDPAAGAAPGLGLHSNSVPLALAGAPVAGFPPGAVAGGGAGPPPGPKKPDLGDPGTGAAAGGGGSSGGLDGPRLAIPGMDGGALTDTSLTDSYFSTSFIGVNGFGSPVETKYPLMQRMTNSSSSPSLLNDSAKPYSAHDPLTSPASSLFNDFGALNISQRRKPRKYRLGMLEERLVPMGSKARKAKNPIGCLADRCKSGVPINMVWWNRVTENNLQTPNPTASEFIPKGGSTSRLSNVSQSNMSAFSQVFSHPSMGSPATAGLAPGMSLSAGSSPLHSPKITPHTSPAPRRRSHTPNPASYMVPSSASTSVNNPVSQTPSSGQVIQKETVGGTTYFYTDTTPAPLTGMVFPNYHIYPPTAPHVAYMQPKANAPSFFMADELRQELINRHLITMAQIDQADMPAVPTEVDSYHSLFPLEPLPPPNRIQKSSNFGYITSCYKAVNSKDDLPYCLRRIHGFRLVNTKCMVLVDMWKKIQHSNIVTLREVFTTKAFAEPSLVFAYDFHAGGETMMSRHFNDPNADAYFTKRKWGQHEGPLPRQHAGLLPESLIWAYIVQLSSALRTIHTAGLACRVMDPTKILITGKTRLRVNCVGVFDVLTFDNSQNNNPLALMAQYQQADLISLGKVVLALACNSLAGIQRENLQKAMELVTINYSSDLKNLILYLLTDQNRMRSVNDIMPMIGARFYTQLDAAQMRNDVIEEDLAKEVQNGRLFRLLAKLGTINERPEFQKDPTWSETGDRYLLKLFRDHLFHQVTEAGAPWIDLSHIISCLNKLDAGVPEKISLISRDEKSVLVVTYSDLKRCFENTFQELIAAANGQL
T11 sequence (Q9NRH2 whole entry): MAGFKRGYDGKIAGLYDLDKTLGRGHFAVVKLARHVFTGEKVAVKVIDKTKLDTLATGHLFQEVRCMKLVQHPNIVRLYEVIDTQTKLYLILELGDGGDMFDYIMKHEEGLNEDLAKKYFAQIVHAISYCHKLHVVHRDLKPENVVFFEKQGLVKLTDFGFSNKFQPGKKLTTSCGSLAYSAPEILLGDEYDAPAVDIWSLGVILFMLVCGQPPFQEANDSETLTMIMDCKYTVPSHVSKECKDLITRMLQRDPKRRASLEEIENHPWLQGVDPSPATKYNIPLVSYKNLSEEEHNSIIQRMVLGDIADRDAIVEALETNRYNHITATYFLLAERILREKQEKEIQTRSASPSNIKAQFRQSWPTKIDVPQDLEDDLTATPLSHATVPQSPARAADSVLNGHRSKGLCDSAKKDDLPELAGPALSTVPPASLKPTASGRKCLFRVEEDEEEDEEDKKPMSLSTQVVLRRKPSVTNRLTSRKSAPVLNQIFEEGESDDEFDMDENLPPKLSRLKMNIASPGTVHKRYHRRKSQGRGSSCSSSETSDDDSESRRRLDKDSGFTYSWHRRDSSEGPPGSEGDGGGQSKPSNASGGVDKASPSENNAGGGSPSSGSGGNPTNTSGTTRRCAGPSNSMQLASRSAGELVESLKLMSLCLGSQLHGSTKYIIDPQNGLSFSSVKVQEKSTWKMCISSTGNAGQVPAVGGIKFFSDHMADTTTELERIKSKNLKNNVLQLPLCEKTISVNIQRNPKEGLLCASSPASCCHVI
T9 sequence (O96017 whole entry): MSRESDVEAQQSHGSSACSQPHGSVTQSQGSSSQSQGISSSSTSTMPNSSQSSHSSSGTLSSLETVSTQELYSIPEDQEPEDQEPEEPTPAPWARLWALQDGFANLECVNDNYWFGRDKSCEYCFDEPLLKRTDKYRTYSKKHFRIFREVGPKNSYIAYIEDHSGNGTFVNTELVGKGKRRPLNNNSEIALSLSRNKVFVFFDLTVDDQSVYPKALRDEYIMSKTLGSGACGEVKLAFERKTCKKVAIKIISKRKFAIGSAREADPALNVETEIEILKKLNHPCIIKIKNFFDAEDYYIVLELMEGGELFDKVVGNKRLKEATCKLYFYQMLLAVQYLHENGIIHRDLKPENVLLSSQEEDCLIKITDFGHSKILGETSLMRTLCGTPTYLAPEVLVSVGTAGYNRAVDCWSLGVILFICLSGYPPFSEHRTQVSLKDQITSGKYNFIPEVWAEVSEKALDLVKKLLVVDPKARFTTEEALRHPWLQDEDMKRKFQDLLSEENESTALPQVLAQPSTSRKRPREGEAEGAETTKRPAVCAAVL
T13 sequence (Q00534 whole entry): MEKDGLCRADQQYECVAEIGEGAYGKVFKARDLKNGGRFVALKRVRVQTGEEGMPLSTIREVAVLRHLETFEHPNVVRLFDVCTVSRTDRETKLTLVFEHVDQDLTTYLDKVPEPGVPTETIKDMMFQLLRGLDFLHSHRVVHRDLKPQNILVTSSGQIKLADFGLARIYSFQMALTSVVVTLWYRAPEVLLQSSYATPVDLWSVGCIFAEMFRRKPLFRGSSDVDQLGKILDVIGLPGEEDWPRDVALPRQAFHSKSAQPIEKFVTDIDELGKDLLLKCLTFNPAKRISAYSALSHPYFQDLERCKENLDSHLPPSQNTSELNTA
T6 sequence (Q8IZL9 whole entry): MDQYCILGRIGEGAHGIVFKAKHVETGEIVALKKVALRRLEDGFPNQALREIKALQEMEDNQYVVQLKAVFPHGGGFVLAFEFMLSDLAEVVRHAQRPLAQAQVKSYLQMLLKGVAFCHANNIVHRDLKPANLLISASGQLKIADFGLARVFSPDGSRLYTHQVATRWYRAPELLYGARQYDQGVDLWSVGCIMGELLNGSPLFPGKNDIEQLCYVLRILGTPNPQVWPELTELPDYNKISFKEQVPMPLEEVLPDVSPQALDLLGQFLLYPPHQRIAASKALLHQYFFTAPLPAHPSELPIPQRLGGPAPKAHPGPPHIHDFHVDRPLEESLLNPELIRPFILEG

Cn1cc(-c2cnc3ccc(NC(=O)Nc4ccc(F)c(C(F)(F)F)c4)cc3n2)cn1 [51-106, 1-(4-Fluoro-3-(trifluoromethyl)phenyl)-3-(3-(1-methyl-1H-pyrazol-4-yl)quinoxalin-6-yl)urea]
inhibition at 5 µM (HRI): ≤ 0% | inhibition at 5 µM (CLK3; ATP Loop, YEIVGNLGEGTFGKVVECLDHAR): ≤ 0% | inhibition at 5 µM (CLK3; Lys2, FLHENQLTHTDLKPENILFVNSEFETLYNEHK): 4.4% | inhibition at 5 µM (MAP4K5; Lys1, NVHTGELAAVKIIK): 6% | inhibition at 5 µM (MAP4K5; Lys2, DIKGANILLTDHGDVK): ≤ 0% | % Inhibition (MAP2K6; Lys1, HVPSGQIMAVKR): NB (NB = No Binding (≤ 0)) | % Inhibition (MAP2K6; Lys2, DVKPSNVLINALGQVK): NB (NB = No Binding (≤ 0)) | inhibition at 5 µM (MAP2K6; ATP Loop, […]): ≤ 0% | % Inhibition (AurA, AurB, AurC): NB (NB = No Binding (≤ 0)) | inhibition at 5 µM (CLK1): 0.5% | % Inhibition (FYN, SRC, YES): 14.0% | inhibition at 5 µM (CCRK): 4.5% | inhibition of MAP3K15 (in words) (MAP3K15, MAP3K5, MAP3K6): did not inhibit | inhibition at 5 µM (PAN3; IQKSSNFGYITSCYK): ≤ 0% | inhibition at 5 µM (PAN3; VMDPTKILITGK): 4.4% | inhibition at 5 µM (CHK2; Lys1, VAIKIISK): 14.8% | inhibition at 5 µM (CHK2; Lys2, DLKPENVLLSSQEEDCLIK): ≤ 0% | inhibition at 5 µM (CDK10): 10.3% | inhibition at 5 µM (SNRK; Lys1, VAVKVIDK): ≤ 0% | inhibition at 5 µM (SNRK; Lys2, DLKPENVVFFEK): 0.4% | inhibition at 5 µM (Erk3): ≤ 0% | inhibition at 5 µM (CDK6): ≤ 0% | inhibition at 5 µM (SRPK2): ≤ 0% | inhibition at 5 µM (ZC1/HGK): 3.1% | % Inhibition (Wnk1, Wnk2): NB (NB = No Binding (≤ 0)) | % Inhibition (MST4, YSK1): 12.8% | inhibition at 5 µM (MSK2 domain1; Lys1, LYAMKVLR): 5.5% | inhibition at 5 µM (MSK2 domain1; Lys2, DLKLENVLLDSEGHIVLTDFGLSK): ≤ 0% | inhibition at 5 µM (PIK3CD): 1.8%
